Legend:
Format in all cases: functional
[1] = system: Rattus norvegicus; test: Antiinflammatory activity in Albino rat assessed as reduction of carrageenan-induced paw volume at 20 mg/kg, po administered 1 hr before carrageenan challenge measured after 1 hr (reference value: 1.925 +/- 0.1011 ml)
[2] = system: Rattus norvegicus; test: Antiinflammatory activity in Albino rat assessed as reduction of carrageenan-induced paw volume at 20 mg/kg, po administered 1 hr before carrageenan challenge measured after 2 hrs (reference value: 1.905 +/- 0.046 ml)
[3] = system: Rattus norvegicus; test: Antiinflammatory activity in Albino rat assessed as reduction of carrageenan-induced paw volume at 20 mg/kg, po administered 1 hr before carrageenan challenge measured after 3 hrs (reference value: 1.63 +/- 0.059 ml)
[4] = system: Rattus norvegicus; test: Antiinflammatory activity in Albino rat assessed as reduction of carrageenan-induced paw volume at 20 mg/kg, po administered 1 hr before carrageenan challenge measured after 4 hrs (reference value: 1.44 +/- 0.046 ml)
[5] = system: Rattus norvegicus; test: Antiinflammatory activity in Albino rat assessed as reduction of carrageenan-induced paw volume at 20 mg/kg, po administered 1 hr before carrageenan challenge measured after 24 hrs (reference value: 1.39 +/- 0.053 ml)
[6] = system: Rattus norvegicus; test: Antiinflammatory activity in Albino rat assessed as inhibition of carrageenan-induced paw volume at 20 mg/kg, po administered 1 hr before carrageenan challenge measured after 2 hrs
[7] = system: Rattus norvegicus; test: Antiinflammatory activity in Albino rat assessed as inhibition of carrageenan-induced paw volume at 20 mg/kg, po administered 1 hr before carrageenan challenge measured after 1 hr
[8] = system: Rattus norvegicus; test: Antiinflammatory activity in Albino rat assessed as inhibition of carrageenan-induced paw volume at 20 mg/kg, po administered 1 hr before carrageenan challenge measured after 3 hrs
[9] = system: Rattus norvegicus; test: Antiinflammatory activity in Albino rat assessed as inhibition of carrageenan-induced paw volume at 20 mg/kg, po administered 1 hr before carrageenan challenge measured after 24 hrs
[10] = system: Rattus norvegicus; test: Antiinflammatory activity in Albino rat assessed as inhibition of carrageenan-induced paw volume at 20 mg/kg, po administered 1 hr before carrageenan challenge measured after 4 hrs

COc1cc(C2NC(=S)NC(c3ccc(C)cc3)=C2CCC(=O)O)ccc1O (stereo not given)
Activity [1]: 1.96 mL
Activity [2]: 1.87 mL
Activity [3]: 1.79 mL
Activity [4]: 1.69 mL
Activity [5]: 1.55 mL
inhibition in vivo at 20 mg/kg [6]: 1.57%

O=C(O)CCC1=C(c2ccccc2)NC(=S)NC1c1ccccc1O (stereo not given)
Activity [1]: 1.29 mL
Activity [2]: 1.36 mL
Activity [3]: 1.42 mL
Activity [4]: 1.49 mL
Activity [5]: 1.36 mL
inhibition in vivo at 20 mg/kg [7]: 33%
inhibition in vivo at 20 mg/kg [6]: 28.6%
inhibition in vivo at 20 mg/kg [8]: 12.9%
inhibition in vivo at 20 mg/kg [9]: 2.15%

O=C(O)Cc1ccccc1Nc1c(Cl)cccc1Cl [DICLOFENAC]
Activity [1]: 1.51 mL
Activity [2]: 1.56 mL
Activity [3]: 1.29 mL
Activity [4]: 1.34 mL
Activity [5]: 1.51 mL
inhibition in vivo at 20 mg/kg [7]: 21.6%
inhibition in vivo at 20 mg/kg [6]: 17.9%
inhibition in vivo at 20 mg/kg [8]: 20.9%
inhibition in vivo at 20 mg/kg [10]: 6.94%

O=C(O)CCC1=C(c2ccc(Cl)cc2)NC(=S)NC1c1ccco1 (stereo not given)
Activity [1]: 1.34 mL
Activity [2]: 1.56 mL
Activity [3]: 1.54 mL
Activity [4]: 1.47 mL
Activity [5]: 1.39 mL
inhibition in vivo at 20 mg/kg [7]: 30.4%
inhibition in vivo at 20 mg/kg [6]: 17.9%
inhibition in vivo at 20 mg/kg [8]: 5.52%

COc1cc(C2NC(=S)NC(c3ccc(C)cc3)=C2CCC(=O)O)cc(OC)c1OC (stereo not given)
Activity [1]: 1.53 mL
Activity [2]: 1.63 mL
Activity [3]: 1.37 mL
Activity [4]: 1.44 mL
Activity [5]: 1.54 mL
inhibition in vivo at 20 mg/kg [7]: 20.5%
inhibition in vivo at 20 mg/kg [6]: 14.2%
inhibition in vivo at 20 mg/kg [8]: 15.9%

Cc1ccc(C2=C(CCC(=O)O)C(c3ccco3)NC(=S)N2)cc1 (stereo not given)
Activity [1]: 1.29 mL
Activity [2]: 1.37 mL
Activity [3]: 1.46 mL
Activity [4]: 1.38 mL
Activity [5]: 1.19 mL
inhibition in vivo at 20 mg/kg [7]: 33%
inhibition in vivo at 20 mg/kg [6]: 28.1%
inhibition in vivo at 20 mg/kg [8]: 10.4%
inhibition in vivo at 20 mg/kg [10]: 4.16%
inhibition in vivo at 20 mg/kg [9]: 14.4%

COc1ccc(C2=C(CCC(=O)O)C(c3ccccc3O)NC(=S)N2)cc1 (stereo not given)
Activity [1]: 1.38 mL
Activity [2]: 1.39 mL
Activity [3]: 1.29 mL
Activity [4]: 1.33 mL
Activity [5]: 1.2 mL
inhibition in vivo at 20 mg/kg [7]: 28.3%
inhibition in vivo at 20 mg/kg [6]: 27%
inhibition in vivo at 20 mg/kg [8]: 20.9%
inhibition in vivo at 20 mg/kg [10]: 7.63%
inhibition in vivo at 20 mg/kg [9]: 13.7%

O=C(O)CCC1=C(c2ccc(F)cc2)NC(=S)NC1c1ccco1 (stereo not given)
Activity [1]: 1.45 mL
Activity [2]: 1.63 mL
Activity [3]: 1.57 mL
Activity [4]: 1.56 mL
Activity [5]: 1.48 mL
inhibition in vivo at 20 mg/kg [7]: 24.7%
inhibition in vivo at 20 mg/kg [6]: 14.2%
inhibition in vivo at 20 mg/kg [8]: 3.68%

O=C(O)CCC1=C(c2ccccc2)NC(=S)NC1c1ccco1 (stereo not given)
Activity [1]: 1.37 mL
Activity [2]: 1.49 mL
Activity [3]: 1.47 mL
Activity [4]: 1.36 mL
Activity [5]: 1.16 mL
inhibition in vivo at 20 mg/kg [7]: 28.8%
inhibition in vivo at 20 mg/kg [6]: 21.8%
inhibition in vivo at 20 mg/kg [8]: 9.81%
inhibition in vivo at 20 mg/kg [10]: 5.55%
inhibition in vivo at 20 mg/kg [9]: 16.5%

O=C(O)CCC1=C(c2ccc(Cl)cc2)NC(=S)NC1c1ccccn1 (stereo not given)
Activity [1]: 1.5 mL
Activity [2]: 1.49 mL
Activity [3]: 1.54 mL
Activity [4]: 1.6 mL
Activity [5]: 1.3 mL
inhibition in vivo at 20 mg/kg [7]: 22.1%
inhibition in vivo at 20 mg/kg [6]: 21.8%
inhibition in vivo at 20 mg/kg [8]: 5.52%
inhibition in vivo at 20 mg/kg [9]: 6.47%

O=C(O)CCC1=C(c2ccc(Cl)cc2)NC(=S)NC1c1ccccc1O (stereo not given)
Activity [1]: 1.74 mL
Activity [2]: 1.62 mL
Activity [3]: 1.61 mL
Activity [4]: 1.58 mL
Activity [5]: 1.46 mL
inhibition in vivo at 20 mg/kg [7]: 9.61%
inhibition in vivo at 20 mg/kg [6]: 14.7%
inhibition in vivo at 20 mg/kg [8]: 1.22%
